# Results as given in ChEMBL document CHEMBL3792367, “Synthesis and molecular modeling of antimicrobial active fluoroquinolone-pyrazine conjugates with amino acid linkers” (2016).
# Tests used:
# [1] = system: Pseudomonas aeruginosa; assay: Antibacterial activity against Pseudomonas aeruginosa ATCC 27853 after 18 hrs by agar dilution method; assay type: functional; conditions: ATCC 27853, 18 h
# [2] = system: Staphylococcus aureus; assay: Antibacterial activity against Staphylococcus aureus ATCC 25923 after 18 hrs by agar dilution method; assay type: functional; conditions: ATCC 25923, 18 h
# [3] = system: Salmonella typhi; assay: Antibacterial activity against Salmonella typhi ATCC 19430 after 18 hrs by agar dilution method; assay type: functional, Salmonella enterica subsp. enterica serovar Typhi; conditions: Salmonella enterica, ATCC 19430, 18 h
# [4] = system: Streptococcus pyogenes; assay: Antibacterial activity against Streptococcus pyogenes ATCC 19615 after 18 hrs by agar dilution method; assay type: functional; conditions: ATCC 19615, 18 h
SMILES,MIC [1] [µM],MIC [2] [µM],MIC [3] [µM],MIC [4] [µM]
O=C(NCCCC(=O)N1CCN(c2cc3c(cc2F)c(=O)c(C(=O)O)cn3C2CC2)CC1)c1cnccn1,597,0.0746,2390,149
C[C@H](NC(=O)c1cnccn1)C(=O)N1CCN(c2cc3c(cc2F)c(=O)c(C(=O)O)cn3C2CC2)CC1,2460,2.46,2460,2460
CCn1cc(C(=O)O)c(=O)c2cc(F)c(N3CCN(C(=O)CNC(=O)c4cnccn4)CC3)cc21,2490,0.648,1300,1300
CCn1cc(C(=O)O)c(=O)c2cc(F)c(N3CCN(C(=O)CCNC(=O)c4cnccn4)CC3)cc21,2520,0.628,2520,1260
CCn1cc(C(=O)O)c(=O)c2cc(F)c(N3CCN(C(=O)CCCNC(=O)c4cnccn4)CC3)cc21,2450,2.45,76.4,2450
CCn1cc(C(=O)O)c(=O)c2cc(F)c(N3CCN(C(=O)[C@H](C)NC(=O)c4cnccn4)CC3)cc21,2520,0.629,2520,1260
O=C(NCC(=O)N1CCN(c2cc3c(cc2F)c(=O)c(C(=O)O)cn3C2CC2)CC1)c1cnccn1,2530,2.53,2530,2530
O=C(NCCC(=O)N1CCN(c2cc3c(cc2F)c(=O)c(C(=O)O)cn3C2CC2)CC1)c1cnccn1,2460,0.307,2460,614
O=C(O)c1cn(C2CC2)c2cc(N3CCNCC3)c(F)cc2c1=O [CIPROFLOXACIN],14.5,3.77,7.2,3770
CCn1cc(C(=O)O)c(=O)c2cc(F)c(N3CCNCC3)cc21 [NORFLOXACIN],15,3.91,7.5,1960
